This assay relates to souris. Nature of the assay: Analgesic activity, Siegmund test (phenyl-p-benzoquinone-induced stretching). The conditions noted are these: Mus musculus; oral, 1 hour before i.p. phényl-p-benzoquinone 0,02 %; stretches counted between minutes 5 and 10; read-out: ED₅₀, dose entraînant une activité de 50%. The assay is classed as in vivo. The text has this:
L'activité sur la douleur a été recherchée chez la souris (23-25 g) selon un protocole dérivé de la technique décrite par SIEGMUND (SIEGMUND E.A., R.A. CADMUS & GOLU, J. Pharm. Exp. Ther. 119, 1874, 1954). Les souris, réparties par randomisation en lots de 12 animaux, ont reçu le traitement par voie orale (excipient pour les témoins) 1 heure avant l'injection intra-péritonéale d'une solution hydroalcoolique de phényl-p-benzoquinone (Sigma) à 0,02 %. Les étirements sont dénombrés entre la 5ème et 10ème minute après l'injection.
Le pourcentage d'activité obtenu a été évalué pour chaque dose (% de diminution du nombre d'étirements chez les traités par rapport aux témoins). Une ED₅₀, dose entraînant une activité de 50%, a été déterminée pour chaque produit.

Structures are written as SMILES.

With `O=C(c1ccccc1)c1ccc2oc(=O)[nH]c2c1` [Exemple 1, BENZOYL-5 BENZOXAZOLINONE], the ED50 is approximately 5 mg/kg.

(Values after patent EP0390673A1, “5-Acyl-benzoxazolinone derivatives, processes for their preparation and pharmaceutical compositions containing them” (ADIR ET COMPAGNIE, priority 1989, dated 1990).)
